Article PMC4490613 (Journal of Neuroinflammation, 2015)
Where two headings read alike, the source gives them in different places.

How the values were obtained:
hCB2 [1] = target: T1, hCB2 (Homo sapiens, UniProt P34972); test: [3H]CP55, […] displacement, CHO membranes; type: binding
T1 construct: gene CNR2; full-length receptor in CHO-K1 cells, membranes or intact cells; PathHunter CHO-K1-HOMSA-CNR2 for beta-arrestin

hCOX-2 = target: T2, hCOX-2 (Homo sapiens, UniProt P35354); test: fluorescent COX inhibitor assay (ADHP), recombinant hCOX-2; type: biochemical; conditions: read-out: h COX-2 / AA
T2 construct: gene PTGS2
T2 sequence (P35354 18-604): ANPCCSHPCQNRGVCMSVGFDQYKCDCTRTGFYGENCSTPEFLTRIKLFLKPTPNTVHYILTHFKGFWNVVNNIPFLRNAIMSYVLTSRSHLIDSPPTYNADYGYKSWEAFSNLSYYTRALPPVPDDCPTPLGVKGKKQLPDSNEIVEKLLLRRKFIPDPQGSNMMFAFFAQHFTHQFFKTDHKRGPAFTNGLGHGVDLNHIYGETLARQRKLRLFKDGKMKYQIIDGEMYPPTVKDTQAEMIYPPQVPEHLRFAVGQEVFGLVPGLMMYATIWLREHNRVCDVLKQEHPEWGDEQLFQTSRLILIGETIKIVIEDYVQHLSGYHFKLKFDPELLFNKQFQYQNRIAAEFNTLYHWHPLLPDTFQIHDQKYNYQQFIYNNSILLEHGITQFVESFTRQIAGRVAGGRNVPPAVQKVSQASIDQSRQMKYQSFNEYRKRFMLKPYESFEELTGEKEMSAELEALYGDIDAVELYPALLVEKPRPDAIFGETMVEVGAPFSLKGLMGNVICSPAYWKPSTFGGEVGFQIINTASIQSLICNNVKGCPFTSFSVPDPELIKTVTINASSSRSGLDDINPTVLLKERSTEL
Excerpt: fluorescent COX inhibitor assay (ADHP), recombinant hCOX-2 on hCOX-2

hCB2 [2] = target: T1, hCB2; test: […]GTPγS binding, CHO-hCB2 membranes; type: biochemical; conditions: read-out: CHO membranes / h CB2 [ ^35 S] GTPγS
hCB1 = target: T3, hCB1 (Homo sapiens, UniProt P21554); test: [3H]CP55, […] displacement, CHO membranes; type: binding; conditions: read-out: CHO membranes / h CB 1
T3 construct: gene CNR1; full-length receptor in CHO cell membranes

hCB2 [3] = target: T1, hCB2; test: […]GTPγS binding, CHO-hCB2 membranes; type: biochemical
hCB2 [4] = target: T1, hCB2; test: forskolin-induced cAMP, GloSensor, CHO-hCB2 cells; type: cell-based; conditions: read-out: CHO cells / h CB2 cAMP
Excerpt: forskolin-induced cAMP, GloSensor, CHO-hCB2 cells on hCB2

[5] = read-out: CHO membranes / h CB 2

T1 sequence (P34972 whole entry): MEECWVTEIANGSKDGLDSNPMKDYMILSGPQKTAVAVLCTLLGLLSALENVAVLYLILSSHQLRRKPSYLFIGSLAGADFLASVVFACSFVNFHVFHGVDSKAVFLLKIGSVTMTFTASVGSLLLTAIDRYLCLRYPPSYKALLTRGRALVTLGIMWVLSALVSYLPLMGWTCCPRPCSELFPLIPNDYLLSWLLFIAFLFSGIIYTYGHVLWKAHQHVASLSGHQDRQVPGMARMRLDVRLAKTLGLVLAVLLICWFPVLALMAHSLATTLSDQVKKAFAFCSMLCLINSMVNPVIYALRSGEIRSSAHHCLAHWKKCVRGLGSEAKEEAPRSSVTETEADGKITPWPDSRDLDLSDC
T3 sequence (P21554 whole entry): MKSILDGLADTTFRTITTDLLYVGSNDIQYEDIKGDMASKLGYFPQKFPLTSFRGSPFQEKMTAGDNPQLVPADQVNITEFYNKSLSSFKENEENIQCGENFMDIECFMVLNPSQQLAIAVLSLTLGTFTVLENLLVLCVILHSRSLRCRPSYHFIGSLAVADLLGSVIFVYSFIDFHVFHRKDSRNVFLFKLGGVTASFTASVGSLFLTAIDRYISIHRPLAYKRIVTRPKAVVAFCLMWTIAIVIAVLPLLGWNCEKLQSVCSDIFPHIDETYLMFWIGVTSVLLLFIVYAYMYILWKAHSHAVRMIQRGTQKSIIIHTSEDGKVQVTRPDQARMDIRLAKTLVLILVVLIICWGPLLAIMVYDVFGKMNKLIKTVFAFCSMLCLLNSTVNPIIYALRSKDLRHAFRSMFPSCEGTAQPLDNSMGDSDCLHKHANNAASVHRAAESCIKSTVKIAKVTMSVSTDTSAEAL

SMILES	Ki (hCB2 [1]; [5])	IC50 (hCOX-2)	Ki (hCB1)	other results
CCCCC/C=C\C/C=C\C/C=C\C/C=C\CCCC(=O)OC(CO)CO [2-AG]	–	–	–	EC50 (hCB2 [3]; read-out: EC50): 74 nM
C=CCc1ccc(O)c(-c2ccc(OC)c(CC=C)c2)c1 [MH, 4′-methoxy-5,3′-di-(2-propenyl)-biphenyl-2-ol]	–	–	–	IC50 (hCOX-2; substrate arachidonic acid 10 μM, heme, pH 8, 15 min pre-incubation, RT): 580 ± 80 nM

Now from value to molecule, other results behind:

Ki (hCB2 [1]; [5])	IC50 (hCOX-2)	Ki (hCB1)	SMILES	other results
350 ± 110 nM	4310 ± 100 nM	1120 ± 150 nM	C=CCc1ccc(OCCCC)c(-c2ccc(O)c(CC=C)c2)c1 [34a, 2-butyloxy-5,3′-di-(2-propenyl)-biphenyl-4′-ol]	IC50 (hCB2 [2]): 1820 ± 140 nM
110 ± 90 nM	1210 ± 80 nM	790 ± 100 nM	C=CCc1ccc(OC)c(-c2ccc(O)c(CC=C)c2)c1 [27a, 2-methoxy-5,3′-di-(2-propenyl)-biphenyl-4′-ol]	EC50 (hCB2 [3]; read-out: CHO membranes / h CB2 [ ^35 S] GTPγS): 180 ± 90 nM; IC50 (hCB2 [4]): 710 ± 90 nM
–	10200 ± 120 nM	–	CCC(C)c1ccc(O)c(-c2cc(C(C)CC)ccc2O)c1 (stereo not shown) [compound 32, 5,5′-di-sec-butyl-biphenyl-2,2′-diol]	Ki (hCB2 [1]): > 10000 nM
